In US10590140B2, “Tetrahydropyrimidodiazepine and dihydropyridodiazepine compounds for treating pain and pain related conditions” (ESTEVE PHARMACEUTICALS, S.A., priority 2016, dated 2020) one finds Ki data, which are given here for 22 molecules.

In test [1] the target is human α2δ-1 subunit of Cav2.2 calcium channel (Homo sapiens (Human), UniProt P54289). Briefly: Binding assay to human α2δ-1 subunit of Cav2.2 calcium channel ([3H]-Gabapentin). To be noted: read-out: Ki (nM) α2δ-1. The essentials: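 Radioactivity on dried GF/C filters quantified by scintillation after filtration and three cold Tris-HCl (pH 7.4) washes. Incubation ran 60 min at 27° C with [3H]-gabapentin; 10 μM pregabalin gave nonspecific binding.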
human α2δ-1 subunit of Cav2.2 calcium channel, sequence (P54289 25-1103): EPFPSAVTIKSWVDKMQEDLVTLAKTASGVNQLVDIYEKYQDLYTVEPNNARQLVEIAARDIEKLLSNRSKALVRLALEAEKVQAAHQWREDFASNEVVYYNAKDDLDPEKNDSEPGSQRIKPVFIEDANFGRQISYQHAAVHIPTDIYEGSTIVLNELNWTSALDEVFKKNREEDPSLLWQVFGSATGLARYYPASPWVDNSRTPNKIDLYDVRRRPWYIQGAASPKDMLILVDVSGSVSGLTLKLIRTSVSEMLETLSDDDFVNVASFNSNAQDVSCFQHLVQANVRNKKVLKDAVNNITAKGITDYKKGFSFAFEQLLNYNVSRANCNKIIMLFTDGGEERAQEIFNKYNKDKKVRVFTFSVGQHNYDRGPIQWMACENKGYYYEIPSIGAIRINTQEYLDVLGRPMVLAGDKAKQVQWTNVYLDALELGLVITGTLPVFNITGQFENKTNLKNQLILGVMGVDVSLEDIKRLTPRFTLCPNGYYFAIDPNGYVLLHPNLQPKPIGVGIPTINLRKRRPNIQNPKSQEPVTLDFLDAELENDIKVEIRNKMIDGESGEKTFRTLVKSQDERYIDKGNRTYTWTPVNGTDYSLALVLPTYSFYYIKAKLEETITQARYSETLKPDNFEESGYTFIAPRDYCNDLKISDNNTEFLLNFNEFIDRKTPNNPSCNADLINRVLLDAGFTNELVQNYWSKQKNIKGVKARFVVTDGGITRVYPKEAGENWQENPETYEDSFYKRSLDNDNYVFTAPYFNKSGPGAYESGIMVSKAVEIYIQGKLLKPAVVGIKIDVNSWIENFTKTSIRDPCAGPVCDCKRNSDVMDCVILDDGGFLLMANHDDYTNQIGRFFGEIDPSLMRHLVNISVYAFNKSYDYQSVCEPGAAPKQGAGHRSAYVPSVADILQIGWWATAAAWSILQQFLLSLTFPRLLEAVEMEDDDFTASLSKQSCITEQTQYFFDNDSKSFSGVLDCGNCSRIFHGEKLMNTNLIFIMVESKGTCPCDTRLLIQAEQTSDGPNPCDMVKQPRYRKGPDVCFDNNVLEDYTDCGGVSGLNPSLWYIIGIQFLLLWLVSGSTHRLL

In test [2] the target is human norepinephrine transporter (NET) (Homo sapiens (Human), UniProt P23975). The experiment in a line: Binding assay to human norepinephrine transporter (NET) ([3H]-Nisoxetin). The conditions noted are these: Table 2, dual compounds; [3H]-Nisoxetin binding. A digest of the protocol: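 NET-enriched membranes (5 μg) incubated with 5 nM [3H]-nisoxetin in 50 mM Tris-HCl, 120 mM NaCl, 5 mM KCl, pH 7.4, 60 min at 4 °C. Bound ligand separated by filtration on PEI-soaked GF/C and counted by scintillation; nonspecific binding defined with 1 μM competitor.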
human norepinephrine transporter (NET), sequence (P23975 whole entry): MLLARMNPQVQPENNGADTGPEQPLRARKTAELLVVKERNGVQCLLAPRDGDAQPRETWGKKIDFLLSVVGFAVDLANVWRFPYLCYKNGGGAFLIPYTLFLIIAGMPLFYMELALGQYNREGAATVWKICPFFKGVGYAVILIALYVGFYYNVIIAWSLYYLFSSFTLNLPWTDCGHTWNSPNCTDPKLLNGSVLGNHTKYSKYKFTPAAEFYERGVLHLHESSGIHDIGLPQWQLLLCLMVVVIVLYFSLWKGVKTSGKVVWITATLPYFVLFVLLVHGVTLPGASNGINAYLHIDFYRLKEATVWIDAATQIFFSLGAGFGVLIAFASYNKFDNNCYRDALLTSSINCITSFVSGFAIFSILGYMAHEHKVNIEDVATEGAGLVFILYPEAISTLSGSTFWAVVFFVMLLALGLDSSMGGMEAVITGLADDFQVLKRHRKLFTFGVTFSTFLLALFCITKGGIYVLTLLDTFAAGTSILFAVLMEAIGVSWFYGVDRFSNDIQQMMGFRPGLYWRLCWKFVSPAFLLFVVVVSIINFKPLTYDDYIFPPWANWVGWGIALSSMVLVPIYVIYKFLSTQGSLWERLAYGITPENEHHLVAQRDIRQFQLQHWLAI

The mark [3] stands for this setting: Table 2, dual compounds, [3H]-Gabapentin binding.
[4] abbreviates: binding to α2δ-1, [3H]-Gabapentin.

Where two headings read alike, the source gives them in different places.

Broadly, the Ki is a dissociation constant, usually derived from enzyme kinetics or from competition with a known ligand. On to `CNCC[C@@H](OCc1cccc(N2CCN(C)c3nc(NCc4ccccn4)ncc3C2=O)c1)c1ccccc1` [Example 343, (R)-9-methyl-6-(3-((3-(methylamino)-1-phenylpropoxy)methyl)phenyl)-2-((pyridin-2-ylmethyl)amino)-6,7,8,9-tetrahydro-5H-pyrimido[4,5-e][1,4]diazepin-5-one], for which the Ki in test [1] (setting [3]), in test [1] (setting [4]) and in test [2] was 100 to 500 nM throughout.

On to `CCNc1ncc2c(n1)N(C)CCN(Cc1ccc(O[C@H](CCNC)c3ccccc3)cc1)C2=O` [Example 415, (R)-2-(ethylamino)-9-methyl-6-(4-(3-(methylamino)-1-phenylpropoxy)benzyl)-6,7,8,9-tetrahydro-5H-pyrimido[4,5-e][1,4]diazepin-5-one], for which the values for the inhibitory constant (Ki) in test [1] (setting [3]), in test [1] (setting [4]) and in test [2] were 500 to 3000 nM, 500 to 3000 nM and 100 to 500 nM, respectively.

On to `CCNc1ncc2c(n1)N(C)CCN(Cc1ccc(COC(CNC)c3ccccc3)cc1)C2=O` (stereo not drawn) [Example 413, 2-(ethylamino)-9-methyl-6-(4-((2-(methylamino)-1-phenylethoxy)methyl)benzyl)-6,7,8,9-tetrahydro-5H-pyrimido[4,5-e][1,4]diazepin-5-one], for which the figures for the Ki in test [1] (setting [3]), in test [1] (setting [4]) and in test [2] were 500 to 3000 nM, 500 to 3000 nM and 100 to 500 nM, respectively.

For `CCNc1ncc2c(n1)N(C)CCN(c1cccc(OCCN(C)Cc3ccccc3)c1)C2=O` [Example 264, 6-(3-(2-(benzyl(methyl)amino)ethoxy)phenyl)-2-(ethylamino)-9-methyl-6,7,8,9-tetrahydro-5H-pyrimido[4,5-e][1,4]diazepin-5-one], the Ki in test [1] (setting [3]), in test [1] (setting [4]) and in test [2] was 100 to 500 nM in each case.

`CNCC[C@@H](OCc1cccc(N2CCN(C)c3nc(N(C)C)ncc3C2=O)c1)c1ccccc1` [Example 196, (R)-2-(dimethylamino)-9-methyl-6-(3-((3-(methylamino)-1-phenylpropoxy)methyl)phenyl)-6,7,8,9-tetrahydro-5H-pyrimido[4,5-e][1,4]diazepin-5-one]: the Ki in test [1] (setting [3]) lay in the range of 500 to 3000 nM; in test [1] (setting [4]) it was 500 to 3000 nM; in test [2], 500 to 1000 nM.

Turning to `CSc1ncc2c(n1)N(C)CCN(c1cccc(COC3(c4ccccc4)CCNCC3)c1)C2=O` [Example 179, 9-methyl-2-(methylthio)-6-(3-(((4-phenylpiperidin-4-yl)oxy)methyl)phenyl)-6,7,8,9-tetrahydro-5H-pyrimido[4,5-e][1,4]diazepin-5-one], the Ki in test [1] (setting [3]) is above 3000 nM; in test [1] (setting [4]) it was above 3000 nM; in test [2] it was above 1000 nM.

For the molecule `CCNc1ncc2c(n1)N(C)CCN(c1cccc(-n3cc(CN(C)CC4CC4)nn3)c1)C2=O` [Example 246, 6-(3-(4-(((cyclopropylmethyl)(methyl)amino)methyl)-1H-1,2,3-triazol-1-yl)phenyl)-2-(ethylamino)-9-methyl-6,7,8,9-tetrahydro-5H-pyrimido[4,5-e][1,4]diazepin-5-one], the inhibitory constant (Ki) in test [1] (setting [3]), in test [1] (setting [4]) and in test [2] was 100 to 500 nM each time.

On to `CNCCC(OCc1cccc(N2CCN(C)c3nc(NCc4ccccc4)ncc3C2=O)c1)c1ccccc1` (stereo not drawn) [Example 335, 2-(benzylamino)-9-methyl-6-(3-((3-(methylamino)-1-phenylpropoxy)methyl)phenyl)-6,7,8,9-tetrahydro-5H-pyrimido[4,5-e][1,4]diazepin-5-one], for which the Ki was 500 to 3000 nM in test [1] (setting [3]), 500 to 3000 nM in test [1] (setting [4]) and below 100 nM in test [2].

Take `CCNc1ncc2c(n1)N(C)CCN(c1cccc(CO[C@H](CCN(C)C)c3ccccc3)c1)C2=O` [Example 236, (R)-6-(3-((3-(Dimethylamino)-1-phenylpropoxy)methyl)phenyl)-2-(ethylamino)-9-methyl-6,7,8,9-tetrahydro-5H-pyrimido[4,5-e][1,4]diazepin-5-one]: the Ki in test [1] (setting [3]) is 500 to 3000 nM; in test [1] (setting [4]), 500 to 3000 nM; in test [2], 500 to 1000 nM.

For the molecule `CCNc1ncc2c(n1)N(C)CCN(c1cccc(-n3cc(CN(C)CCc4ccccc4)nn3)c1)C2=O` [Example 244, 2-(ethylamino)-9-methyl-6-(3-(4-((methyl(phenethyl)amino)methyl)-1H-1,2,3-triazol-1-yl)phenyl)-6,7,8,9-tetrahydro-5H-pyrimido[4,5-e][1,4]diazepin-5-one], the inhibition constant Ki is 500 to 3000 nM in test [1] (setting [3]), 500 to 3000 nM in test [1] (setting [4]) and below 100 nM in test [2].

`CNCC[C@@H](OCc1cccc(N2CCN(C)c3nc(SC)ncc3C2=O)c1)c1cccs1` [Example 209, (R)-9-methyl-6-(3-((3-(methylamino)-1-(thiophen-2-yl)propoxy)methyl)phenyl)-2-(methylthio)-6,7,8,9-tetrahydro-5H-pyrimido[4,5-e][1,4]diazepin-5-one]: the inhibition constant (Ki) in test [1] (setting [3]), in test [1] (setting [4]) and in test [2] was 100 to 500 nM each time.

Take `CCNc1ncc2c(n1)N(C)CCN(Cc1ccc(OC(CNC)c3ccccc3)cc1)C2=O` (stereo not drawn) [Example 201, 2-(ethylamino)-9-methyl-6-(4-(2-(methylamino)-1-phenylethoxy)benzyl)-6,7,8,9-tetrahydro-5H-pyrimido[4,5-e][1,4]diazepin-5-one]: the figures for the Ki in test [1] (setting [3]), in test [1] (setting [4]) and in test [2] were above 3000 nM, above 3000 nM and below 100 nM, respectively.

As to `CCNc1ncc2c(n1)N(C)CCN(Cc1ccc(OC(CCNC)c3ccccc3)cc1)C2=O` (stereo not drawn) [Example 408, 2-(ethylamino)-9-methyl-6-(4-(3-(methylamino)-1-phenylpropoxy)benzyl)-6,7,8,9-tetrahydro-5H-pyrimido[4,5-e][1,4]diazepin-5-one], the inhibitory constant (Ki) in test [1] (setting [3]) is 500 to 3000 nM; in test [1] (setting [4]), 500 to 3000 nM; in test [2], below 100 nM.

Take `CCNc1ncc2c(n1)N(C)CCN(c1cccc(-n3cc(CN(C)Cc4ccc(F)cc4)nn3)c1)C2=O` [Example 287, 2-(ethylamino)-6-(3-(4-(((4-fluorobenzyl)(methyl)amino)methyl)-1H-1,2,3-triazol-1-yl)phenyl)-9-methyl-6,7,8,9-tetrahydro-5H-pyrimido[4,5-e][1,4]diazepin-5-one]: the Ki in test [1] (setting [3]) is 500 to 3000 nM; in test [1] (setting [4]), 500 to 3000 nM; in test [2], below 100 nM.

On to `CNCCC(OCc1cccc(N2CCN(C)c3nc(C(F)(F)F)ncc3C2=O)c1)c1ccccc1` (stereo not drawn) [Example 322, 9-methyl-6-(3-((3-(methylamino)-1-phenylpropoxy)methyl)phenyl)-2-(trifluoromethyl)-6,7,8,9-tetrahydro-5H-pyrimido[4,5-e][1,4]diazepin-5-one], for which the Ki in test [1] (setting [3]) was above 3000 nM; in test [1] (setting [4]) it was above 3000 nM; in test [2], 100 to 500 nM.

Consider `CCNc1ncc2c(n1)N(C)CCN(c1cccc(OCCN(C)CCc3ccccc3)c1)C2=O` [Example 265, 2-(ethylamino)-9-methyl-6-(3-(2-(methyl(phenethyl)amino)ethoxy)phenyl)-6,7,8,9-tetrahydro-5H-pyrimido[4,5-e][1,4]diazepin-5-one], for which the Ki in test [1] (setting [3]), in test [1] (setting [4]) and in test [2] was 100 to 500 nM in each case.

For the molecule `CNCC[C@@H](OCc1cccc(N2CCN(C)c3nc(N(C)Cc4cccnc4)ncc3C2=O)c1)c1ccccc1` [Example 342, (R)-9-methyl-2-(methyl(pyridin-3-ylmethyl)amino)-6-(3-((3-(methylamino)-1-phenylpropoxy)methyl)phenyl)-6,7,8,9-tetrahydro-5H-pyrimido[4,5-e][1,4]diazepin-5-one], the Ki in test [1] (setting [3]), in test [1] (setting [4]) and in test [2] was 100 to 500 nM throughout.

Regarding `CNCCC(Oc1ccc(N2CCN(C)c3nc(SC)ncc3C2=O)cc1)c1ccccc1` (stereo not drawn) [Example 316, 9-methyl-6-(4-(3-(methylamino)-1-phenylpropoxy)phenyl)-2-(methylthio)-6,7,8,9-tetrahydro-5H-pyrimido[4,5-e][1,4]diazepin-5-one], the inhibition constant (Ki) was above 3000 nM in test [1] (setting [3]), above 3000 nM in test [1] (setting [4]) and 500 to 1000 nM in test [2].

For the molecule `CCNc1ncc2c(n1)N(C)CCN(Cc1ccc(COC(CCNC)c3ccccc3)cc1)C2=O` (stereo not drawn) [Example 405, 2-(ethylamino)-9-methyl-6-(4-((3-(methylamino)-1-phenylpropoxy)methyl)benzyl)-6,7,8,9-tetrahydro-5H-pyrimido[4,5-e][1,4]diazepin-5-one], the figures for the inhibition constant Ki in test [1] (setting [3]), in test [1] (setting [4]) and in test [2] were above 3000 nM, above 3000 nM and 100 to 500 nM, respectively.

Turning to `CNCCC(OCc1ccc(N2CCN(C)c3nc(C)ncc3C2=O)cc1)c1ccccc1` (stereo not drawn) [Example 353, 2,9-dimethyl-6-(4-((3-(methylamino)-1-phenylpropoxy)methyl)phenyl)-6,7,8,9-tetrahydro-5H-pyrimido[4,5-e][1,4]diazepin-5-one], the Ki in test [1] (setting [3]) is above 3000 nM; in test [1] (setting [4]), above 3000 nM; in test [2], below 100 nM.

For `CNCC(OCc1ccc(CN2CCN(C)c3nc(SC)ncc3C2=O)cc1)c1ccccc1` (stereo not drawn) [Example 374, 9-methyl-6-(4-((2-(methylamino)-1-phenylethoxy)methyl)benzyl)-2-(methylthio)-6,7,8,9-tetrahydro-5H-pyrimido[4,5-e][1,4]diazepin-5-one], the Ki in test [1] (setting [3]) is above 3000 nM; in test [1] (setting [4]), above 3000 nM; in test [2], 100 to 500 nM.

For the molecule `CCNc1cc2c(cn1)C(=O)N(Cc1ccc(O[C@@H](CCNC)c3cccs3)cc1)CCN2C` [Example 383, (S)-8-(ethylamino)-1-methyl-4-(4-(3-(methylamino)-1-(thiophen-2-yl)propoxy)benzyl)-1,2,3,4-tetrahydro-5H-pyrido[4,3-e][1,4]diazepin-5-one], the Ki in test [1] (setting [3]), in test [1] (setting [4]) and in test [2] was 100 to 500 nM in each case.
